Holding throughout (format): cell-based
For one assay, the target named is T1, AKT1 E17K (Homo sapiens, UniProt P31749, E17K).
T1 construct: expressed in transfected cells; host or cells: HEK293
Kind of assay: Live cell AKT1 E17K target engagement by NanoBRET competitive probe displacement. The following applies: HEK293 cells transfected with kinase-NanoLuciferase fusion, 2 h at 37° C. Put shortly:
(§1)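 Luminescence ratio 600/460 nm served as readout after HEK293 cells bearing transiently expressed kinase–NanoLuciferase fusions were exposed 2 h at 37 °C to test compound alongside an ATP-competitive fluorescent tracer near EC50. Extracellular signal was quenched by a luciferase inhibitor.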

Another assay deals with T2, AKT2 (Homo sapiens, UniProt P31751).
T2 construct: expressed in transfected cells; host or cells: HEK293
T2 sequence (P31751 whole entry): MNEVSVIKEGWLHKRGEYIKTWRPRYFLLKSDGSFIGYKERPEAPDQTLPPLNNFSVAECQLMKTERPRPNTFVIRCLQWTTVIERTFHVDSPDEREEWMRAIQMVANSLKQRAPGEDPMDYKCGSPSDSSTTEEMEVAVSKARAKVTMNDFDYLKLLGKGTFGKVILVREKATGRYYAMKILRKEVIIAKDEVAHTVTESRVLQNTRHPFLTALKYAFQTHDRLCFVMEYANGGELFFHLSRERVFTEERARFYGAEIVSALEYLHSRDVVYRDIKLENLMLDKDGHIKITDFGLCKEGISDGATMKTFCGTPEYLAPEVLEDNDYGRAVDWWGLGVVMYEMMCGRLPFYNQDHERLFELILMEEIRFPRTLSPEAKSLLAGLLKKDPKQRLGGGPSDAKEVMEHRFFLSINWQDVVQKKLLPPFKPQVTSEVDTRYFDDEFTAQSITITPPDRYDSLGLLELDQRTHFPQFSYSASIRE
Kind of assay: Live cell AKT2 target engagement by NanoBRET competitive probe displacement. To be noted: HEK293 cells transfected with kinase-NanoLuciferase fusion, 2 h at 37° C. Put shortly:
as §1
(Bioluminescence resonance energy transfer reports proximity on the nanometre scale.)

For a further assay, the target named is T3, AKT1 WT (Homo sapiens, UniProt P31749).
T3 construct: expressed in transfected cells; host or cells: HEK293
T3 sequence (P31749 whole entry): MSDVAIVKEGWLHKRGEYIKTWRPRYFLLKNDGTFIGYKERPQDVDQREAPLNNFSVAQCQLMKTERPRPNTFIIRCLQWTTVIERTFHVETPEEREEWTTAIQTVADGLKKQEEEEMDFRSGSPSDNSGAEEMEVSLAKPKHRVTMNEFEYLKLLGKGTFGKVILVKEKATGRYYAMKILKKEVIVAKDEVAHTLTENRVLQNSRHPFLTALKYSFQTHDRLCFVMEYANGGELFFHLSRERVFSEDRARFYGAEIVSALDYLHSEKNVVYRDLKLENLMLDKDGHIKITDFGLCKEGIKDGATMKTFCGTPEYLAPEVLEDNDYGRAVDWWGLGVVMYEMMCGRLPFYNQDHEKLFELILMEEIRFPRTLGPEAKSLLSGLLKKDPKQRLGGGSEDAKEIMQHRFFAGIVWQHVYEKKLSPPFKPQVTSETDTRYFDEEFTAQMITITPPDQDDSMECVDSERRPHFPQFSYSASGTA
Description: Live cell AKT1 WT target engagement by NanoBRET competitive probe displacement. To be noted: HEK293 cells transfected with kinase-NanoLuciferase fusion, 2 h at 37° C. Put shortly:
as §1

Assay [1] deals with LAPC4 prostate cancer cells. Description: Antiproliferative effects in LAPC4 cells (CellTiter Glo). To be noted: LAPC4 cells (AKT1 E17K allele), read-out: LAPC4 proliferation IC50. The essentials: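 IC50 values reflect 72 h compound treatment of cells plated at 1,000 per well, with CellTiter Glo luminescence as the viability read-out.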
(Cellular ATP, detected with luciferase, serves as a proxy for viable cell number.)

Molecules are shown by their SMILES. Read-outs that look alike come from different tables or passages of the source.

T1 sequence (P31749 whole entry E17K): as the sequence (P31749 whole entry) above, with E17K counted along it

Take `C=C(F)C(=O)Nc1cccc(C(=O)N[C@H]2CCc3cc(-n4c(-c5cccnc5N)nc5ccc(-n6cccn6)nc54)ccc32)c1` [Example 8, (S)-N-(5-(2-(2-aminopyridin-3-yl)-5-(1H-pyrazol-1-yl)-3H-imidazo[4,5-b]pyridin-3-yl)-2,3-dihydro-1H-inden-1-yl)-3-(2-fluoroacrylamido)benzamide]: the IC50 on AKT1 E17K is 112 nM; on AKT2, 71.5 nM; at AKT1 WT it was 7.07 nM; in assay [1] (Homo sapiens, LAPC4, 72 h), 1120 nM.

For the compound `C=C(F)C(=O)N1CC2(CC(N[C@H]3CCc4cc(-n5c(-c6cccnc6N)nc6ccc(-n7cccn7)nc65)ccc43)C2)C1` [Example 83, (S)-1-(6-((5-(2-(2-aminopyridin-3-yl)-5-(1H-pyrazol-1-yl)-3H-imidazo[4,5-b]pyridin-3-yl)-2,3-dihydro-1H-inden-1-yl)amino)-2-azaspiro[3.3]heptan-2-yl)-2-fluoroprop-2-en-1-one], the IC50 at AKT1 E17K stood at 192 nM; on AKT2, 583 nM; on AKT1 WT, 56.2 nM; in assay [1] (Homo sapiens, LAPC4, 72 h), 506 nM.

Consider `C=CC(=O)N1C[C@H]2CCC[C@@H](C1)C2N[C@H]1CCc2cc(-n3c(-c4cccnc4N)nc4ccc(-n5cccn5)nc43)ccc21` (single isomer, unassigned) [Example 189, 1-((1R,5S,9*)-9-(((S)-5-(2-(2-aminopyridin-3-yl)-5-(1H-pyrazol-1-yl)-3H-imidazo[4,5-b]pyridin-3-yl)-2,3-dihydro-1H-inden-1-yl)amino)-3-azabicyclo[3.3.1]nonan-3-yl)prop-2-en-1-one], for which the IC50 at AKT1 E17K was 60.9 nM; at AKT2 it was 740 nM; at AKT1 WT, 1470 nM; in assay [1] (72 h), 1370 nM.

`C=CC(=O)N1CC2(CCC(N[C@H]3CCc4cc(-n5c(-c6cccnc6N)nc6ccc(-n7cccn7)nc65)ccc43)CC2)C1` [Example 32, 1-(7-{[(1S)-5-[2-(2-aminopyridin-3-yl)-5-(pyrazol-1-yl)imidazo[4,5-b]pyridin-3-yl]-2,3-dihydro-1H-inden-1-yl]amino}-2-azaspiro[3.5]nonan-2-yl)prop-2-en-1-one]: the IC50 at AKT1 E17K is 10.1 nM; on AKT2, 41.6 nM; on AKT1 WT it was 13.1 nM; in assay [1] (Homo sapiens, LAPC4, 72 h), 14.1 nM.

Turning to `C=CC(=O)N1CCC(N[C@H]2CCc3cc(-n4c(-c5cccnc5N)nc5ccc(-n6cccn6)nc54)ccc32)C1` (single isomer, unassigned) [Example 58, 1-((*)-3-(((S)-5-(2-(2-aminopyridin-3-yl)-5-(1H-pyrazol-1-yl)-3H-imidazo[4,5-b]pyridin-3-yl)-2,3-dihydro-1H-inden-1-yl)amino)pyrrolidin-1-yl)prop-2-en-1-one], the IC50 at AKT1 E17K stood at 189 nM; at AKT2, 1030 nM; at AKT1 WT, 50.2 nM; in assay [1] (72 h) it was 438 nM.

Take `CN(CC#N)C(=O)N1CCC(N[C@H]2CCc3cc(-n4c(-c5cccnc5N)nc5ccc(-n6cccn6)nc54)ccc32)CC1` [Example 128, 4-{[(1S)-5-[2-(2-aminopyridin-3-yl)-5-(pyrazol-1-yl)imidazo[4,5-b]pyridin-3-yl]-2,3-dihydro-1H-inden-1-yl]amino-N}-(cyanomethyl)-N-methylpiperidine-1-carboxamide]: the IC50 worked out at 8.62 nM on AKT1 E17K; 43 nM at AKT2; 10.6 nM on AKT1 WT; 44.8 nM in assay [1] (Homo sapiens, LAPC4, 72 h).

For `C=CC(=O)N1CCC(N[C@@H]2c3ccc(-n4c(-c5cccnc5N)nc5ccc(-n6cccn6)nc54)cc3CC2F)C(C)C1` (single isomer, unassigned) [Example 291, 1-[(3*,4*)-4-{[(1R,2*)-5-[2-(2-aminopyridin-3-yl)-5-(pyrazol-1-yl)imidazo[4,5-b]pyridin-3-yl]-2-fluoro-2,3-dihydro-1H-inden-1-yl]amino}-3-methylpiperidin-1-yl]prop-2-en-1-one], the IC50 at AKT1 E17K turned out to be 68.3 nM; on AKT2, 358 nM; on AKT1 WT it was 1580 nM; in assay [1] (72 h), 1110 nM.

On to `C=CC(=O)N1CCN(NC2CCc3cc(-n4c(-c5cccnc5N)nc5ccc(-n6cccn6)nc54)ccc32)CC1` (single isomer, unassigned) [Example 148, (*)-1-(4-((5-(2-(2-aminopyridin-3-yl)-5-(1H-pyrazol-1-yl)-3H-imidazo[4,5-b]pyridin-3-yl)-2,3-dihydro-1H-inden-1-yl)amino)piperazin-1-yl)prop-2-en-1-one], for which the IC50 on AKT1 E17K was found to be 38 nM; at AKT2, 61 nM; on AKT1 WT, 12.5 nM; in assay [1] (72 h) it was 93.3 nM.

Turning to `C=CC(=O)N1CCC(N[C@@H]2c3ccc(-n4c(-c5cccnc5N)nc5ccc(-n6ccc(F)n6)nc54)cc3CC2F)C[C@H]1C` (single isomer, unassigned) [Example 276, 1-((2R,4*)-4-(((1R,2*)-5-(2-(2-aminopyridin-3-yl)-5-(3-fluoro-1H-pyrazol-1-yl)-3H-imidazo[4,5-b]pyridin-3-yl)-2-fluoro-2,3-dihydro-1H-inden-1-yl)amino)-2-methylpiperidin-1-yl)prop-2-en-1-one], the IC50 came out at 30.7 nM on AKT1 E17K, 106 nM at AKT2, 1350 nM at AKT1 WT and 378 nM in assay [1] (72 h).

Regarding `C=CC(=O)N1CCC(NC2c3ccc(-n4c(-c5cccnc5N)nc5ccc(-n6cccn6)nc54)cc3CC2O)CC1` (single isomer, unassigned) [Example 151, 1-(4-(((1*,2*)-5-(2-(2-aminopyridin-3-yl)-5-(1H-pyrazol-1-yl)-3H-imidazo[4,5-b]pyridin-3-yl)-2-hydroxy-2,3-dihydro-1H-inden-1-yl)amino)piperidin-1-yl)prop-2-en-1-one], the IC50 at AKT1 E17K is more than 1000 nM; on AKT2, more than 10000 nM; on AKT1 WT it was more than 1000 nM; in assay [1] (72 h), more than 10000 nM.

Regarding `C=CC(=O)N1CCC(N[C@H]2CCc3cc(-n4c(-c5cccnc5N)nc5ccc(N6CCC(F)(F)CC6)nc54)ccc32)CC1` [Example 186, 1-(4-{[(1S)-5-[2-(2-aminopyridin-3-yl)-5-(4,4-difluoropiperidin-1-yl)imidazo[4,5-b]pyridin-3-yl]-2,3-dihydro-1H-inden-1-yl]amino}piperidin-1-yl)prop-2-en-1-one], the IC50 on AKT1 E17K came to 30.6 nM; at AKT2, 954 nM; at AKT1 WT it was 877 nM; in assay [1] (Homo sapiens, LAPC4, 72 h) it was 801 nM.

Consider `C=CC(=O)N1CCC(N[C@H]2CCc3cc(-n4c(-c5cccnc5N)nc5ccc(-n6cccn6)nc54)ccc32)C[C@H]1COC` (single isomer, unassigned) [Example 129, 1-[(2S,4*)-4-{[(1S)-5-[2-(2-aminopyridin-3-yl)-5-(pyrazol-1-yl)imidazo[4,5-b]pyridin-3-yl]-2,3-dihydro-1H-inden-1-yl]amino}-2-(methoxymethyl)piperidin-1-yl]prop-2-en-1-one], for which the IC50 on AKT1 E17K is more than 1000 nM; on AKT2 it was 2720 nM; at AKT1 WT, 115 nM; in assay [1] (72 h), more than 10000 nM.

As to `C=C(F)C(=O)N1CCC2(CC1)CC(N[C@H]1CCc3cc(-n4c(-c5cccnc5N)nc5ccc(-n6cccn6)nc54)ccc31)C2` [Example 84, (S)-1-(2-((5-(2-(2-aminopyridin-3-yl)-5-(1H-pyrazol-1-yl)-3H-imidazo[4,5-b]pyridin-3-yl)-2,3-dihydro-1H-inden-1-yl)amino)-7-azaspiro[3.5]nonan-7-yl)-2-fluoroprop-2-en-1-one], the IC50 turned out to be 264 nM on AKT1 E17K; 278 nM at AKT2; 34.1 nM at AKT1 WT; 327 nM in assay [1] (Homo sapiens, LAPC4, 72 h).

Consider `C=CC(=O)N1CCC(N[C@H]2CCc3cc(-n4c(-c5cccnc5N)nc5ccc(N6CCC(F)CC6)nc54)ccc32)CC1` [Example 238, 1-(4-{[(1S)-5-[2-(2-aminopyridin-3-yl)-5-(4-fluoropiperidin-1-yl)imidazo[4,5-b]pyridin-3-yl]-2,3-dihydro-1H-inden-1-yl]amino}piperidin-1-yl)prop-2-en-1-one], for which the IC50 on AKT1 E17K is 37.2 nM; on AKT2, 666 nM; at AKT1 WT, 679 nM; in assay [1] (Homo sapiens, LAPC4, 72 h), 667 nM.

As to `C=CC(=O)N1CC2COC(C1)C2N[C@H]1CCc2cc(-n3c(-c4cccnc4N)nc4ccc(-n5cccn5)nc43)ccc21` (stereo partly drawn) [Example 224, 1-(8-{[(1S)-5-[2-(2-aminopyridin-3-yl)-5-(pyrazol-1-yl)imidazo[4,5-b]pyridin-3-yl]-2,3-dihydro-1H-inden-1-yl]amino}-6-oxa-3-azabicyclo[3.2.1]octan-3-yl)prop-2-en-1-one], the IC50 at AKT1 E17K was found to be 70.6 nM; at AKT2, 256 nM; at AKT1 WT, 1240 nM; in assay [1] (Homo sapiens, LAPC4, 72 h) it was 719 nM.

Turning to `C=CC(=O)N1C[C@@H]2C[C@H]1CC2N[C@H]1CCc2cc(-n3c(-c4cccnc4N)nc4ccc(-n5cccn5)nc43)ccc21` (single isomer, unassigned) [Example 136, 1-[(1S,4S,5*)-5-{[(1S)-5-[2-(2-aminopyridin-3-yl)-5-(pyrazol-1-yl)imidazo[4,5-b]pyridin-3-yl]-2,3-dihydro-1H-inden-1-yl]amino}-2-azabicyclo[2.2.1]heptan-2-yl]prop-2-en-1-one], the IC50 is 211 nM on AKT1 E17K, 1950 nM on AKT2, 95.8 nM on AKT1 WT and 520 nM in assay [1] (72 h).
